# Experimental data: ChEMBL document CHEMBL5653615 (J Biol Chem, 2013)
# Key:
# [1] = target: T1, Serine/threonine-protein kinase Nek9 (Homo sapiens) (UniProt Q8TD19); experiment: Inhibition of human NEK9 at 18.6 nM by HotSpot assay relative to control
# T1 sequence (whole entry): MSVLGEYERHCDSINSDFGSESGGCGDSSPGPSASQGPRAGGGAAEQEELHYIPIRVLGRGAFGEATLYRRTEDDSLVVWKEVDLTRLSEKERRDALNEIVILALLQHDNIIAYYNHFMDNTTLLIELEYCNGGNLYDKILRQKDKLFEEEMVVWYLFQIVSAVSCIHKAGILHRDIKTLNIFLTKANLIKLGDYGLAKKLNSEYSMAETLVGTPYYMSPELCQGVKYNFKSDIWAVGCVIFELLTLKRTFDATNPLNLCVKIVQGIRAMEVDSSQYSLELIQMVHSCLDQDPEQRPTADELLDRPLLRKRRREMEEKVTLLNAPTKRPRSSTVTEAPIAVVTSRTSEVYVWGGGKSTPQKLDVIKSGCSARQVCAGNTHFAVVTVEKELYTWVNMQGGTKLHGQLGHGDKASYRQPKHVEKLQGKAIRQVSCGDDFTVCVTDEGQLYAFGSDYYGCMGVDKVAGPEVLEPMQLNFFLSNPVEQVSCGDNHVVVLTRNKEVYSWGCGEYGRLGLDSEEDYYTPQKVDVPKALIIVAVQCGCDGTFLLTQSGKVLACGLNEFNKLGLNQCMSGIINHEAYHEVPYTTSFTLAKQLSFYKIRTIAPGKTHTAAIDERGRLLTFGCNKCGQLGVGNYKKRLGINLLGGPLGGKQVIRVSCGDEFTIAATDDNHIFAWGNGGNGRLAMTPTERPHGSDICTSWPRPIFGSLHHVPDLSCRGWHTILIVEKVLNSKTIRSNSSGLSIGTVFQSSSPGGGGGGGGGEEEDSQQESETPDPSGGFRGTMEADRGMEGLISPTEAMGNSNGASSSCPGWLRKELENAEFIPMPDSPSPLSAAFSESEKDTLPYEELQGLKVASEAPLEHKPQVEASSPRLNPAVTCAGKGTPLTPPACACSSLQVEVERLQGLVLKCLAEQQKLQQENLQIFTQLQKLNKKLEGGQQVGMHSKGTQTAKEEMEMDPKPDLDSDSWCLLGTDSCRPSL
# [2] = target: Casein kinase I isoform gamma-3 (Homo sapiens) (UniProt Q9Y6M4); experiment: Inhibition of human CK1g3 at 18.6 nM by HotSpot assay relative to control
# Sequence of Casein kinase I isoform gamma-3 (Homo sapiens) (Q9Y6M4 whole entry, looked up, canonical isoform): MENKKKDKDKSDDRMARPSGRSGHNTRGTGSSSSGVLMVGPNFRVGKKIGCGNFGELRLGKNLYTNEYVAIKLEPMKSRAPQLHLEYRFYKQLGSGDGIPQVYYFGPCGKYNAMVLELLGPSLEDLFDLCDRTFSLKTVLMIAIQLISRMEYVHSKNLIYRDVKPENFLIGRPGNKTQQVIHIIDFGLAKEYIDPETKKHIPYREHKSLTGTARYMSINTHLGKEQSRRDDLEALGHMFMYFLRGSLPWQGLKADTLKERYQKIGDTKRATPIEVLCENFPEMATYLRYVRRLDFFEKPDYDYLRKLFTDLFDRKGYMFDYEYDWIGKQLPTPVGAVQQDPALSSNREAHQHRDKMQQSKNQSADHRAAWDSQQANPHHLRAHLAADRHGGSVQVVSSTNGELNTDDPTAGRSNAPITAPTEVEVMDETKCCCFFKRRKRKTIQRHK
# [3] = target: Mitogen-activated protein kinase kinase kinase kinase 5 (Homo sapiens) (UniProt Q9Y4K4); experiment: Inhibition of human KHS at 18.6 nM by HotSpot assay relative to control
# Sequence of Mitogen-activated protein kinase kinase kinase kinase 5 (Homo sapiens) (Q9Y4K4 whole entry, looked up): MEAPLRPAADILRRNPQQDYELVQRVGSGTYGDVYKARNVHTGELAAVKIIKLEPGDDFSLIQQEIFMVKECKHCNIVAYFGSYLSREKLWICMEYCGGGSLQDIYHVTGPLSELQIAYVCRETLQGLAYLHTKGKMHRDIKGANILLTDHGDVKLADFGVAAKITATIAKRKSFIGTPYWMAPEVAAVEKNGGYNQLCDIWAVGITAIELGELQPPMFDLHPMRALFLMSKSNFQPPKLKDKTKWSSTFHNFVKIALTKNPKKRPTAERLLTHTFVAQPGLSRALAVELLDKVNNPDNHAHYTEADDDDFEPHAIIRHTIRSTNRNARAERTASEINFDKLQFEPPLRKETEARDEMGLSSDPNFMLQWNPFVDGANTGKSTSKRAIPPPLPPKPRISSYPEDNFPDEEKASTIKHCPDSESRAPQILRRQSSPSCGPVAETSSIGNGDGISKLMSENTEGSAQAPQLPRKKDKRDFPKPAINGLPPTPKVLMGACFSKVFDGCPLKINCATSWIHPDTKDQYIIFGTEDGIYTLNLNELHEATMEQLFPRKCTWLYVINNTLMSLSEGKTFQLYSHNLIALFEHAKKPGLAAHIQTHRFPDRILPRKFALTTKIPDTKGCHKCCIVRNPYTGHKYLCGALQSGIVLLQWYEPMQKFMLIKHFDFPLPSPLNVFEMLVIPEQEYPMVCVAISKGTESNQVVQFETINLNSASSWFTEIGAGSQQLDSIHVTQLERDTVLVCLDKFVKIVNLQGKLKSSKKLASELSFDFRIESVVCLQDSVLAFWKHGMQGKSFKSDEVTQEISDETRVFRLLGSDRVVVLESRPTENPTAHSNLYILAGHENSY
# [4] = target: Serine/threonine-protein kinase pim-2 (Homo sapiens) (UniProt Q9P1W9); experiment: Inhibition of human PIM2 at 18.6 nM by HotSpot assay relative to control
# Sequence of Serine/threonine-protein kinase pim-2 (Homo sapiens) (Q9P1W9 whole entry, looked up): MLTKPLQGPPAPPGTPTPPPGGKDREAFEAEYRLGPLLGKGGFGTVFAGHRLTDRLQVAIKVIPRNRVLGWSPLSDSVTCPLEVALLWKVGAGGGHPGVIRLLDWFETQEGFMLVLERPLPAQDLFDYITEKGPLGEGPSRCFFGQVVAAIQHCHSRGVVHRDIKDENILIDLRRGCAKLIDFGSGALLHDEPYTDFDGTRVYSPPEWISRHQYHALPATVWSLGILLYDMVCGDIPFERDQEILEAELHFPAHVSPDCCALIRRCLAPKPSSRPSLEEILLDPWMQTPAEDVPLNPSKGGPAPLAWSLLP
# [5] = target: Calcium/calmodulin-dependent protein kinase type 1D (Homo sapiens) (UniProt Q8IU85); experiment: Inhibition of human CAMK1d at 1.82 nM by HotSpot assay relative to control
# Sequence of Calcium/calmodulin-dependent protein kinase type 1D (Homo sapiens) (Q8IU85 whole entry, looked up): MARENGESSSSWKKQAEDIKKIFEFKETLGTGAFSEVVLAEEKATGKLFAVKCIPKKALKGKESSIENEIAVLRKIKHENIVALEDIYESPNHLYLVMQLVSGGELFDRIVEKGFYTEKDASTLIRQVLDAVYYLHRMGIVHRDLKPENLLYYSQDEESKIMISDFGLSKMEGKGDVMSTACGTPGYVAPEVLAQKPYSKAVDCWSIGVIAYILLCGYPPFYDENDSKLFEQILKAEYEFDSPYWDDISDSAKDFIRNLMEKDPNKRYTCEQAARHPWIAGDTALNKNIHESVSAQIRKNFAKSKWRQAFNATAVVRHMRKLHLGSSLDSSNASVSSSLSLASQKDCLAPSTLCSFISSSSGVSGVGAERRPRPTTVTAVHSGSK
# [6] = target: Serine/threonine-protein kinase PAK 2 (Homo sapiens) (UniProt Q13177); experiment: Inhibition of human PAK2 at 1.82 nM by HotSpot assay relative to control
# Sequence of Serine/threonine-protein kinase PAK 2 (Homo sapiens) (Q13177 whole entry): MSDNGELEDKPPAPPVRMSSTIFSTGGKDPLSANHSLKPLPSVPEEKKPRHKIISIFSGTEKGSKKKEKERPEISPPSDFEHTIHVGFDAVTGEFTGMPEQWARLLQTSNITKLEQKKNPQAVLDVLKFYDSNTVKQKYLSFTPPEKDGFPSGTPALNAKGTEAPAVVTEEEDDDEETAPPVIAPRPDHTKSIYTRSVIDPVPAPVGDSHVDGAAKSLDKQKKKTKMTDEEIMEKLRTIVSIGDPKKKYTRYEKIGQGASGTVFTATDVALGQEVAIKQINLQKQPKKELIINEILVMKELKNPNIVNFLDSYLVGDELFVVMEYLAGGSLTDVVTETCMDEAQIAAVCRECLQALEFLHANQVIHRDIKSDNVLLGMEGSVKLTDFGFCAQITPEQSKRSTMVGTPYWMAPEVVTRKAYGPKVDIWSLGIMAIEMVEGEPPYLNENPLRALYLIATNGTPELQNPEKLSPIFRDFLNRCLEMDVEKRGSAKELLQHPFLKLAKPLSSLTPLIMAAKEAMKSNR
# [7] = target: Ribosomal protein S6 kinase beta-1 (Homo sapiens) (UniProt P23443); experiment: Inhibition of human RPS6KB1 at 1.82 nM by HotSpot assay relative to control
# Sequence of Ribosomal protein S6 kinase beta-1 (Homo sapiens) (P23443 whole entry, looked up): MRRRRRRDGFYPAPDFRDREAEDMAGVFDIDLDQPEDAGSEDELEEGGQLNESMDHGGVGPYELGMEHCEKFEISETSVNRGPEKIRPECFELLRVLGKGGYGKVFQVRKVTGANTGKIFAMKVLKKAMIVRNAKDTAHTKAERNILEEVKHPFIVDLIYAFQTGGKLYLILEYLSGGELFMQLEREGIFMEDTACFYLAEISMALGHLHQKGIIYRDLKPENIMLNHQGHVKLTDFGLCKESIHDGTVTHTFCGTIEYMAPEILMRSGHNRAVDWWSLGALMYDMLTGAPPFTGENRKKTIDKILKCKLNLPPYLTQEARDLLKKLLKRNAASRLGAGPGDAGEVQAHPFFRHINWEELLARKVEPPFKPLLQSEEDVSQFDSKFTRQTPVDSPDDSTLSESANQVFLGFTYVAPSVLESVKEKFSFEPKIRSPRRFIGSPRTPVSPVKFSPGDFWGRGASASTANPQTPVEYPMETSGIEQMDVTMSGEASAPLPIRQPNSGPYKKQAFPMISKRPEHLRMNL
# [8] = target: T2, 3-phosphoinositide-dependent protein kinase 1 (Homo sapiens) (UniProt O15530); experiment: Inhibition of human PDPK1 at 1.82 nM by HotSpot assay relative to control
# T2 sequence (whole entry): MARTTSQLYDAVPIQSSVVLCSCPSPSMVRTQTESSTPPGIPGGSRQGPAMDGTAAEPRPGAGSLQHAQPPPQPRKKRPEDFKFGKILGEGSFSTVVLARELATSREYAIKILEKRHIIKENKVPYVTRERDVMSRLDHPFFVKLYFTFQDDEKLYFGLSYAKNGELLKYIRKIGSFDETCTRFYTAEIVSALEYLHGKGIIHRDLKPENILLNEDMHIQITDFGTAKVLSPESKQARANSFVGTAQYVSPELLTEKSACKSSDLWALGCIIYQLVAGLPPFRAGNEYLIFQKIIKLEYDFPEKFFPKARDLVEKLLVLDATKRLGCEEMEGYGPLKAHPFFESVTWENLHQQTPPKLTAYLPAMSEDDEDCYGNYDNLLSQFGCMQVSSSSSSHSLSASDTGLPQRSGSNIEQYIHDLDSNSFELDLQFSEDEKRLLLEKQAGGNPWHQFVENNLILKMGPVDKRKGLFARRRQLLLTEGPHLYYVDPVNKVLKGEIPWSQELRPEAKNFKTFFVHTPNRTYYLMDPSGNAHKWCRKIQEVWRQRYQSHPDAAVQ
# [9] = target: Mitogen-activated protein kinase 11 (Homo sapiens) (UniProt Q15759); experiment: Inhibition of human MAPK11 at 1.82 nM by HotSpot assay relative to control
# Sequence of Mitogen-activated protein kinase 11 (Homo sapiens) (Q15759 whole entry): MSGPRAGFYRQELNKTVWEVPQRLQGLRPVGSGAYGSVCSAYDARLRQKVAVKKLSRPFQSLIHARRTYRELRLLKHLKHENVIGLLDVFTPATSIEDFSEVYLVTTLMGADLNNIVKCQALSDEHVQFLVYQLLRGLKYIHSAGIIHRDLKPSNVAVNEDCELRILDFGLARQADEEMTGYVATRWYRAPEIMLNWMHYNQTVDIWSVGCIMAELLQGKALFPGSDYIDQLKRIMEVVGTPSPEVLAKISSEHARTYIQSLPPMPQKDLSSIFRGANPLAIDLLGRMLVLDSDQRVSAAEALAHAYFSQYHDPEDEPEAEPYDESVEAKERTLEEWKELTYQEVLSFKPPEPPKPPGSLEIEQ
# [10] = target: T3, Tyrosine-protein kinase ITK/TSK (Homo sapiens) (UniProt Q08881); experiment: Inhibition of human ITK at 1.82 nM by HotSpot assay relative to control
# T3 sequence (whole entry): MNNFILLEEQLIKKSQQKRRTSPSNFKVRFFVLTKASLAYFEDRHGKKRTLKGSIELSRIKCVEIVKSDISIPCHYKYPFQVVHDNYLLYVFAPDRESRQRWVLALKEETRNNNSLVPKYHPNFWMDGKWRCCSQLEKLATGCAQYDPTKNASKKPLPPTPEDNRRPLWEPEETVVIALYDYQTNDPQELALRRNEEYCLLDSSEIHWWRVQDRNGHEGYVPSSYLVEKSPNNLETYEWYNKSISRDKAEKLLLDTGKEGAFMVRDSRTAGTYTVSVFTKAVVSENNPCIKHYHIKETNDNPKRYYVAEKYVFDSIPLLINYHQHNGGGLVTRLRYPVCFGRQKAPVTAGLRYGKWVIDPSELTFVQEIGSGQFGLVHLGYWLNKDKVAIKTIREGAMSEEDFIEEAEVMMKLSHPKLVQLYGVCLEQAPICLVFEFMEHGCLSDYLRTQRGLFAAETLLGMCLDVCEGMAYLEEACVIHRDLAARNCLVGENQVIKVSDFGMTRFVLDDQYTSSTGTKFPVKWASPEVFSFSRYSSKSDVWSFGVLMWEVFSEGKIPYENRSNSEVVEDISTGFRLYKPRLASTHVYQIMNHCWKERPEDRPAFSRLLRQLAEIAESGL
inhibition [2] [%],inhibition [3] [%],inhibition [4] [%],inhibition [5] [%],inhibition [6] [%],inhibition [7] [%],inhibition [8] [%],inhibition [9] [%],inhibition [10] [%],SMILES,inhibition [1] [%]
1.42,12.1,-9.03,–,–,–,–,–,–,C[C@]1(O)C[C@@H](c2nc(-c3ccc4ccc(-c5ccccc5)nc4c3)c3c(N)nccn32)C1,-6.26
–,–,–,-3.77,-8.78,-5.56,-0.32,-1.71,-7.19,C[C@@]1(C(=O)Nc2ccc(F)nc2)CCCN1c1nc(Nc2cc(C3CC3)n[nH]2)c2cccn2n1,–
